Converted amounts (≈) assume the structure as drawn. Peptide text beside a SMILES is read from it. * marks the point of attachment. FITC = O=C1OC2(c3ccc(O)cc3Oc3cc(O)ccc32)c2ccc(NC(=S)*)cc21; Ahx = NCCCCCC(=O)O
Columns and labels:
C. albicans [1] = assay: Scanning electron microscopy, cell morphology; assay type: cell-based, Candida albicans; details: 0.25 mM P-113, 10^7 CFU/mL, SD broth, 28 °C, 1-6 h
Experimental: Time-course morphological studies of C. albicans were performed by scanning electron microscopy (SEM). Overnight cultures of C. albicans were sub-cultured and grown in SD broth. Then, 10^7 CFU/mL of C. albicans was treated with 0.25 mM P-113 in SD broth at 28 °C. Samples were collected following 1, 2, 3, 4, 5, and 6 h of incubation. Another experiment was performed to observe the morphological changes caused over in a short time caused by Bip-P-113 and Dip-P-113. Briefly, 10^7 CFU/mL of C. albicans in SD broth was treated for 5 min at 28 °C with 50 μM P-113, Bip-P-113, and Dip-P-113. After harvest, cells were resuspended in fixation solution (2.5% glutaraldehyde in 20 mM phosphate buffer pH 7.4) and then placed on Thermanox substrate-coated cover slips at 4 °C for 12 h. The cover slips were carefully washed three times with 20 mM phosphate buffer (pH 7.4), followed by incubation in post-fixation solution (1% OsO4 in 20 mM phosphate buffer pH 7.4) at room temperature for an hour. After being washed three times with 20 mM phosphate buffer (pH 7.4), the cover slips were air-dried for an hour by dehydration with a graded series of ethanol. Samples were gold-coated and observed under an S-4700 field-emission (FE)-SEM (Hitachi, Ltd., Tokyo, Japan) at an acceleration voltage of 5 kV.

[2] = 0.01% P-113 (0.07 μM) in a mouthrinse treatment, clinical trial; cited from earlier work
Candida albicans = assay type: cell-based; details: 24 h, 1
Experimental: Figure 7 Time killing activity of FITC-labeled P-113 peptide and its FITC-labeled derivatives against Candida albicans. Cells were treated with 1× MIC of (a) P-113 (black circle), FITC-labeled N-terminal truncated P-113 (black square), FITC-labeled C-terminal truncated P-113 (black triangle), and (b) treated with FITC-labeled Bip-P-113 (white square), and FITC-labeled Dip-P-113 (white triangle). Killed cells (%) = (cell number in peptide-free control − cell number in sample)/(cell number in peptide-free control) × 100. Error bars represent the standard errors of the mean.
C. albicans were cultivated onto Sabouraud dextrose agar plates overnight and sub-cultured twice before time killing assays. A total of 5 × 10^4 CFU/mL of C. albicans cells were treated with 1× MIC of FITC-conjugated P-113 peptides and their derivatives in SD broth for 10, 20, 30, 60, and 120 min at 28 °C. After that time, serial dilutions (1:10) of the incubation mixtures were added onto SD agar. The numbers of CFU were counted after 24 h of incubation at 28 °C. The percentage of killed cells was calculated by comparison with the number of cells in a control sample incubated without P-113 peptide. The assays were performed in triplicate.

[3] = tested on: C. albicans American Type Culture Collection (ATCC) 10,231; assay type: cell-based, Candida albicans; details: American Type Culture Collection (ATCC) 10,231, 24 h
Experimental: C. albicans (ATCC 10231) from the American Type Culture Collection (Manassas, VA, USA) was cultured at 28 °C on SD agar plates.
To determine the minimum inhibitory concentration (MIC) values of the FITC conjugated-P-113 peptides and their derivatives, a broth microdilution assay was used. Overnight-grown cultures of C. albicans in SD broth were sub-cultured for several hours and subsequently diluted to a final concentration of 5 × 10^4 CFU/mL in Mueller Hinton (MH) broth and LYM broth. A total of 100 μL of diluted microbe was transferred into each well of a 96-well plate, into which a 1 μL dilution series of peptides in sterile water (ranging from 50 to 0.78 μg/mL) was previously added. After incubation for 24 h at 28 ℃, the MIC value of P-113 peptides was determined as the lowest concentration at which no change in optical density was observed. The experiment was conducted three times, and average values were reported.

C. albicans [4] = assay: Confocal laser microscopy, localization of FITC peptides; assay type: cell-based, Candida albicans; details: 50 μM FITC-conjugated peptide, 10^7 CFU/mL, SD broth, 28 °C, 5 min
Experimental: Firstly, 10^7 CFU/mL of C. albicans was incubated with 0.25 mM FITC P-113 and 0.25 mM FITC alone (as a negative control) in SD broth at 28 °C for 1, 2, 3, 4, 5, and 6 h. Another experiment was performed to observe the short-term localization of Bip-P-113 and Dip-P-113 peptides. Briefly, log-phase C. albicans cultures were resuspended to a cell density of 10^7 CFU/mL in SD broth and treated for 5 min at 28 °C with 50 μM FITC-conjugated P-113, Bip-P-113, and Dip-P-113. After centrifugation, the cells were washed three times with 20 mM phosphate buffer (pH 7.4) to remove nonbinding peptides and fixed with 4% (w/v) paraformaldehyde in 20 mM phosphate buffer (pH 7.4) at room temperature for 20 min. Following fixation, the cells were centrifuged at 3500× g for 5 min, resuspended in phosphate buffer, and loaded onto a glass slide with a 1.4% solid agarose bed. The images were taken with a confocal laser scanning microscope (LSM 510 META, Carl Zeiss, Jena, Germany) equipped with a 40× C-Apochromat water-immersion objective lens (Carl Zeiss, Jena, Germany).

[5] = tested on: living C. albicans cells (secreted aspartic proteinases, Saps); assay: Degradation of P-113 by living C. albicans cells (NMR); assay type: in vitro ADME, Candida albicans
Experimental: For living cell NMR experiments, the interaction between ^15N-labeled P-113 peptides and C. albicans was monitored by 2D heteronuclear single quantum coherence (HSQC) spectroscopy. The peptides were dissolved in SD broth for a total volume of 500 μL at a 0.275 mM concentration. After centrifugation, 10^7 CFU/mL of cells were resuspended in 50 μL of SD broth and then titrated into the peptide solution. The ^15N-^1H HSQC spectra were recorded on a Bruker Avance 600-MHz NMR spectrometer in the States-TPPI mode for quadrature detection at 301 K. The ^1H and ^15N carriers were placed at 4.699 and 120 ppm, respectively. After titration, 2D HSQC spectra were collected every hour during 24 h of incubation at 301 K. All spectra were processed with NMRPipe and analyzed using the Sparky program (T.D. Goddard and D.G. Kneller, SPARKY3, University of California, San Francisco, CA, USA).
To obtain sequence assignment information, 3D spectra, including those from HNCA, HN(CO)CA, HNCACB, HN(CO)CACB, HN(CA)CO, and HNCO experiments, were recorded on a Bruker Avance 600-MHz NMR spectrometer at 301 K. The ^13C carriers were placed at 48 ppm for C^α, at 38 ppm for ^13C^α/β and at 174 ppm for C′. All spectra were processed with NMRPipe and analyzed using the Sparky program.
To observe the correlation of amide nitrogen (^15Ni) to the carbon (^13C′) spin in the proceeding residue (^13C′i−1), 2D CON experiments were performed on Bruker Avance 850-MHz NMR spectrometer equipped with a triple-resonance cryogenic probe. The spectra comparing ^15N-, ^13C-labeled P-113 in SD broth and in a C. albicans titration were recorded with the center frequencies at 120 ppm (^15N) and 174 ppm (^13C), respectively. All spectra were processed with NMRPipe and analyzed using the Sparky program.
The inhibition of P-113 degradation by C. albicans was determined using living cell NMR experiments as described above in the presence of 0.5 mM of the aspartic protease inhibitor pepstatin A.

In the case of `C[C@H](NC(=O)CCCCCNC(=S)Nc1ccc2c(c1)C(=O)OC21c2ccc(O)cc2Oc2cc(O)ccc21)C(=O)N[C@@H](CCCCN)C(=O)N[C@@H](CCCNC(=N)N)C(=O)N[C@@H](Cc1c[nH]cn1)C(=O)N[C@@H](Cc1c[nH]cn1)C(=O)NCC(=O)N[C@@H](Cc1ccc(O)cc1)C(=O)N[C@@H](CCCCN)C(=O)N[C@@H](CCCNC(=N)N)C(=O)N[C@@H](CCCCN)C(=O)N[C@@H](Cc1ccccc1)C(=O)N[C@@H](Cc1c[nH]cn1)C(N)=O` [Peptide P-113] ({FITC-Ahx}-AKRHHGYKRKFH-NH2; N-terminus assumed), the “Cell surface morphology (SEM), time course” value (C. albicans [1]) is listed as “smooth”, the “Effect on gingivitis and plaque” value [2] is listed as “reduced the development of gingivitis and plaque” and the Killed cells (Candida albicans) is listed as 87%. The “MIC, LYM Control” value [3] was 3.13 µg/mL (≈ 1.51 µM), the “MIC, MH Broth” value [3] was >50 µg/mL and the “Cellular localization of FITC peptide” value (C. albicans [4]) was “accumulated in the cytosol”. The Cleavage sites ([5]; 0.25 mM 15N-,13C-labeled P-113, 10^7 CFU/mL C. albicans, SD broth, 301 K, 24 h, 15N-13C CON and 3D backbone assignment) was “Tyr7-Lys8, Lys8-Arg9, and Lys10-Phe11”, the “Incubation time to near-complete degradation of P-113” value ([5]; 0.25 mM 15N-labeled P-113 (no FITC), 10^7 CFU/mL C. albicans, SD broth with 10% D2O, 301 K, 1H-15N HSQC every hour) was 5 h and the “Time at which the first cleavage (Lys10-Phe11) was observed” value ([5]; 0.25 mM 15N-labeled P-113, 10^7 CFU/mL C. albicans, SD broth, 301 K, new HSQC cross-peaks) was 1 h. The “Changes in 1H-15N HSQC chemical shifts (degradation) in the presence of pepstatin A” value ([5]; 0.25 mM P-113, 10^7 CFU/mL C. albicans + 0.5 mM pepstatin A, 301 K, 24 h) was “no noticeable changes” and the “Changes in chemical shifts (degradation) at cell densities below 10^7 cells/mL” value ([5]; 0.25 mM P-113, C. albicans below 10^7 cells/mL, data not shown) was “did not show any noticeable changes”.
